Experimental data published in US7723380B2, “Antiviral protease inhibitors” (Gilead Sciences, Inc., priority 2006, dated 2010).
pKi: −log10 of the molar value.

Molecular target: T1, recombinant HIV-1 protease expressed in E. Coli (Human immunodeficiency virus type 1 group M subtype B, UniProt P04585)
T1 construct: Enzyme: recombinant HIV-1 protease expressed in E. Coli; purchased Bachem California, Inc. (Torrance, Calif.) H-9040; host or cells: E. coli
Assay: HIV-1 Protease Enzyme Assay (Ki), fluorimetric detection of hexapeptide substrate cleavage
Format: biochemical
Details: recombinant HIV-1 protease 1 to 2.5 nM, substrate 40 μM, pH 5.3, 37° C., tight-binding competitive inhibition
From the text: Biological Assays Used for the Characterization of HIV Protease Inhibitors HIV-1 Protease Enzyme Assay (Ki)
The assay is based on the fluorimetric detection of synthetic hexapeptide substrate cleavage by HIV-1 protease in a defined reaction buffer as initially described by M. V. Toth and G. R. Marshall, Int. J. Peptide Protein Res. 36, 544 (1990)
Substrate: (2-aminobenzoyl)Thr-Ile-Nle-(p-nitro)Phe-Gln-Arg
Substrate supplied by Bachem California, Inc. (Torrance, Calif.; Cat. no. H-2992)
Enzyme: recombinant HIV-1 protease expressed in E. Coli
Enzyme supplied by Bachem California, Inc. (Torrance, Calif.; Cat. no. H-9040)
Reaction buffer: 100 mM ammonium acetate, pH 5.3
• 1 M sodium chloride • 1 mM ethylendiaminetetraacetic acid • 1 mM dithiothreitol • 10% dimethylsulfoxide Assay Protocol for the Determination of Inhibition Constant Ki: • 1. Prepare series of solutions containing identical amount of the enzyme (1 to 2.5 nM) and a tested inhibitor at different concentrations in the reaction buffer • 2. Transfer the solutions (190 μL each) into a white 96-well plate • 3. Preincubate for 15 min at 37° C. • 4. Solubilize the substrate in 100% dimethylsulfoxide at a concentration of 800 μM. Start the reaction by adding 10 μL of 800 μM substrate into each well (final substrate concentration of 40 μM) • 5. […]

Compound: CCOP(=O)(COc1ccc(C[C@H](NC(=O)O[C@H]2CO[C@H]3OCC[C@H]32)[C@@H](O)CN(Cc2ccc(-c3ccccn3)cc2)NC(=O)[C@@H](NC(=O)OC)C(C)(C)C)cc1)OCC [Example AY]
- pKi: > 10.52
